Counter-ions that a name gives are not always drawn. Like-named read-outs stand apart in the source and are kept apart here.
Experiments:
[1] = tested on: Meerschweinchen-Papillarmuskel; experiment: Contraction force of the heart on papillary muscle (negative inotropy); assay type: cell-based; details: for IC20: concentration that reduces contraction of the papillary muscle by 20 %, read-out: C20 CF
From the text: Die Wirkung auf die Kontraktionskraft des Herzens wurde am Meerschweinchen-Papillarmuskel untersucht. Hämodynamische Studien wurden bei gesunden, wie auch akut infarzierten Hunden durchgeführt.

[2] = tested on: Purkinje-Fasern aus Hundeherzen; experiment: Electrophysiological studies on Purkinje fibres (Vmax); assay type: cell-based, Hund; details: for IC20: purkinje, read-out: C20 Vmax
From the text: Die antiarrhythmische Wirksamkeit der erfindungsgemäßen Verbindungen wurde sowohl anhand von elektrophysiologischen Studien an Purkinje-Fasern aus Hundeherzen sowie mit Hilfe von Ouabain-induzierten ventrikulären Tachykardien bei Hunden bestimmt. […]
Als zusätzliches Kriterium wurde der Vorzeitigkeitsindex (Prematurity-Faktor) bestimmt, der die erwünschte Wirksamkeit der erfindungsgemäßen Verbindungen bei vorzeitigen Extrasystolen charakterisiert.

[3] = Acute toxicity LD50, rat i.v.; details: in vivo, iv, Ratte (i.v.), read-out: LD₅₀
From the text: (§1) Dies ergibt sich aus einem Vergleich der LD₅₀-Werte bei Ratten und Mäusen, die in Tabelle (II) zusammengefaßt sind. Tabelle I

[4] = Acute toxicity LD50, mouse i.v.; details: in vivo, iv, Maus (i.v.), read-out: LD₅₀
From the text: as §1

[5] = (% of control Vmax at cycle length 2000) / (% of control Vmax at cycle length 500) at C20 Vmax
[6] = (% of control Vmax at premature extrasystoles) / (% of control Vmax at a normal beat) at Vmax

| SMILES | IC20 [1] [µM] | Rate-Faktor von Vmax [2, 5] | Prematurity Faktor Vmax [2, 6] | IC20 [2] [µM] | C20 CF [1] | C20 Vmax [2] | Prematurity Faktor Vmax [2] | Rate-Faktor von Vmax [2] | LD50 [3] [mg/kg] | LD50 [4] [mg/kg] |
| --- | --- | --- | --- | --- | --- | --- | --- | --- | --- | --- |
| CCCNCC(O)COc1ccccc1CCC(=O)c1cccc(OC)c1.Cl (centres unmarked) [Beispiel 26, 1-(3-Methoxyphenyl)-3-[2′-(2-hydroxy-3-n-propylamino-propoxy)-phenyl]-1-propanon-hydrochlorid] | 3 | 1,16 | 0,93 | 1.7 | – | – | – | – | – | – |
| COc1cccc(C(=O)CCc2ccccc2OCC(O)CNC(C)(C)C)c1.Cl (centres unmarked) [Beispiel 27, 1-(3-Methoxyphenyl)-3-[2′-(2-hydroxy-3-tert.-butylamino-propoxy)-phenyl]-1-propanon-hydrochlorid] | 4 | 0,99 | 1,24 | 1.6 | – | – | – | – | – | – |
| CCC(C)(C)NCC(O)COc1ccccc1CCC(=O)c1ccc(OC)c(OC)c1.Cl (centres unmarked) [Beispiel 2, 1-(3,4-Dimethoxyphenyl)-3-[2′-(2-hydroxy-3-tert.-pentylamino-propoxy)-phenyl]-1-propanon-hydrochlorid] | 8 | 1,27 | 1,15 | 3.6 | – | – | – | – | – | – |
| COc1ccc(C(=O)CCc2ccccc2OCC(O)CNCCO)cc1OC (centres unmarked) [Beispiel 8, 1-(3,4-Dimethoxyphenyl)-3-[2′-(2-hydroxy-3(2˝-hydroxy-ethylamino)-propoxy)-phenyl]-1-propanon-hydrochlorid] | – | – | – | – | 13,0 µM | 8,3 µM | 0,97 | 1,34 | – | – |
| Cl.O=C(CCc1ccccc1OCC(O)CNC1CCCCC1)c1ccccc1 (centres unmarked) [Beispiel 46, 1-Phenyl,-3-[2′-(2-hydroxy-3-cyclohexylamino-propoxy)-phenyl]-1-propanon-hydrochlorid] | 2 | 2,50 | 0,92 | 2.2 | – | – | – | – | – | – |
| Cc1ccc(C(=O)CCc2ccccc2OCC(O)CNC(C)(C)C)cc1.Cl (centres unmarked) [Beispiel 44, 1-(4-Methylphenyl)-3-[2′-(2-hydroxy-3-tert.-butylamino-propoxy)-phenyl]-1-propanon-hydrochlorid] | 6 | 1,11 | 0,99 | 2.6 | – | – | – | – | – | – |
| CCC(CO)NCC(O)COc1ccccc1CCC(=O)c1ccc(OC)c(OC)c1 (centres unmarked) [Beispiel 9, 1-(3,4-Dimethoxyphenyl)-3-[2′-(2-hydroxy-3-(1˝-hydroxy-but-2-ylamino)-propoxy)-phenyl]-1-propanon-oxalat] | – | – | – | – | 25,0 µM | 10,2 µM | 0,97 | 1,30 | – | – |
| Cl.O=C(CCc1ccccc1OCC(O)CN1CCCCC1)c1ccccc1 (centres unmarked) [Beispiel 47, 1-Phenyl-3-[2′-(2-hydroxy-3-piperidino-propoxy)-phenyl]-1-propanon-hydrochlorid] | 2 | 1,08 | 0,99 | 0.3 | – | – | – | – | – | – |
| COc1cc(C(=O)CCc2ccccc2OCC(O)CNC(C)C)cc(OC)c1OC.Cl (centres unmarked) [Beispiel 12, 1-(3,4,5-Trimethoxyphenyl)-3-[2′-(2-hydroxy-3-isopropylamino-propoxy)-phenyl]-1-propanon-hydrochlorid] | 18 | 1,14 | 0,90 | 5.8 | – | – | – | – | – | – |
| CCCNCC(O)COc1ccccc1C(=O)CCc1ccccc1 (centres unmarked) [A, Propafenon, reference compound] | – | – | – | – | 5,3 µM | 3,7 µM | 0,97 | 1,08 | – | – |
| CCCNCC(O)COc1ccccc1CCC(=O)c1ccc(OC)c(OC)c1.Cl (centres unmarked) [Beispiel 1, 1-(3,4-Dimethoxyphenyl)-3-[2′-(2-hydroxy-3-n-propylaminopropoxy)-phenyl]-1-propanon-hydrochlorid] | 15 | 5,00 | 0,50 | 12.5 | – | – | – | – | 17 | 16 |
| COc1cccc(C(=O)CCc2ccccc2OCC(O)CNC(C)C)c1.Cl (centres unmarked) [Beispiel 24, 1-(3-Methoxyphenyl)-3-[2′-(2-hydroxy-3-isopropylamino-propoxy)-phenyl]-1-propanon-hydrochlorid] | 10 | 1,15 | 1,01 | 1.6 | – | – | – | – | – | – |
| COc1ccc(C(=O)CCc2ccccc2OCC(O)CNC(C)(C)C)cc1OC.Cl (centres unmarked) [Beispiel 5, 1-(3,4-Dimethoxyphenyl)-3-[2′-(2-hydroxy-3-tert.-butylamino-propoxy)-phenyl]-1-propanon-hydrochlorid] | 12 | 1,39 | 0,98 | 4.4 | – | – | – | – | – | – |
| COc1ccc(C(=O)CCc2ccccc2OCC(O)CNCC(C)O)cc1OC (centres unmarked) [Beispiel 7, 1-(3,4-Dimethoxyphenyl)-3-[2′-(2-hydroxy-3(2˝-hydroxy-propylamino)-propoxy)-phenyl]-1-propanon-hydrochlorid] | – | – | – | – | 18,0 µM | 5,7 µM | 0,98 | 1,39 | – | – |
| CC(C)(C)NCC(O)COc1ccccc1CCC(=O)c1ccccc1.Cl (centres unmarked) [Beispiel 48, 1-Phenyl-3-[2′-(2-hydroxy-3-tert.-butylamino-propoxy)-phenyl]-1-propanon-hydrochlorid] | 3 | 1,18 | 0,91 | 1 | – | – | – | – | – | – |
| COc1cc(C(=O)CCc2ccccc2OCC(O)CNC2CCCCC2)cc(OC)c1OC.Cl (centres unmarked) [Beispiel 16, 1-(3,4,5-Trimethoxyphenyl)-3-[2′-(2-hydroxy-3-cyclohexylamino-propoxy)-phenyl]-1-propanon-hydrochlorid] | 9 | 5,00 | 0,50 | 11.9 | – | – | – | – | – | – |
| COc1ccc(C(=O)CCc2ccccc2OCC(O)CN2CCCCC2)cc1OC (centres unmarked) [Beispiel 6] | – | – | – | – | 20,0 µM | 11,3 µM | 0,70 | 1,32 | – | – |
| COc1ccc(C(=O)CCc2ccccc2OCC(O)CNC(C)C)cc1OC.Cl (centres unmarked) [Beispiel 4, 1-(3,4-Dimethoxyphenyl)-3-[2′-(2-hydroxy-3-isopropylamino-propoxy)-phenyl]-1-propanon-hydrochlorid] | 22 | 1,13 | 1,01 | 4.8 | – | – | – | – | – | – |
| COc1ccccc1C(=O)CCc1ccccc1OCC(O)CNC(C)(C)C.Cl (centres unmarked) [Beispiel 38, 1-(2-Methoxyphenyl)-3-[2′-(2-hydroxy-3-tert.-butylamino-propoxy)-phenyl]-1-propanon-hydrochlorid] | 7 | 1,30 | 0,97 | 1.7 | – | – | – | – | 15 | 17 |

— patent publication EP0296592A2, “Aminopropanol derivatives of 3-(2-hydroxyphenyl)-1-propanone, process for their preparation and medicines containing these compounds” (Helopharm W. Petrik GmbH & Co.KG., priority 1987, dated 1988)
